# Patent US12624025B2, “Inhibitors of SARM1” (DISARM THERAPEUTICS, INC., priority 2019, dated 2026)
# Target: T1, SARM1 SAM-TIR (Homo sapiens, UniProt Q6SZW1)
# T1 construct: a fragment of the SARM1 molecule encompassing the SAM and TIR domains; tandem Strep-tag II (WSHPQFEK twice, with Gly/Ser linkers); made in house; host or cells: NRK1-HEK293T cells (transient transfection; crude lysate supernatant used, not purified)
# T1 sequence (Q6SZW1 409-724 limits assumed): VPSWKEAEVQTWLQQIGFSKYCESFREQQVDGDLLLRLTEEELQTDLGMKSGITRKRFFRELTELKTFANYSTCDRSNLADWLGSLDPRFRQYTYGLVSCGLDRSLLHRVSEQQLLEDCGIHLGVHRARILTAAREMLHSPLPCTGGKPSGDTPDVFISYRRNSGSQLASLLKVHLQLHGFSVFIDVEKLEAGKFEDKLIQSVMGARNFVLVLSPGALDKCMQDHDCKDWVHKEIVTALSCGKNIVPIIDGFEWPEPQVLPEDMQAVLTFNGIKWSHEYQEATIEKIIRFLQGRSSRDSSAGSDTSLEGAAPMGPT
# Assay: SAM-TIR SARM1 IC50 assay (NADase activity, NAD+ cleavage, RapidFire MS readout)
# Type: biochemical
# Settings: not given
# Method: This Example describes an assay of SAM-TIR NADase activity and use of this assay to measure the efficacy of compounds of Formula I to block SARM1 mediated NAD+ cleavage. This assay is optimized in such a way as to characterize the efficacy of the compounds in Formula I to inhibit SARM1 activity and to calculate an IC50 value for each compound. This assay makes use of a fragment of the SARM1 molecule encompassing the SAM and TIR domains.
# NRK1-HEK293T cells were seeded onto 150 cm^2 plates at 20×10^6 cells per plate. The next day, the cells were transfected with 15 μg FCIV-SST (SAM-TIR expression plasmid, SEQ ID NO: 1) using X-TREMEGENE™ 9 DNA Transfection Reagent (Roche product #06365787001).
# The cultures were supplemented with 1 mM NR at time of transfection to minimize toxicity from SAM-TIR overexpression. Forty-eight hours after transfection, cells were harvested, pelleted by centrifugation at 1,000 rpm (Sorvall ST 16R centrifuge, Thermo Fisher), and washed once with cold PBS (0.01 M phosphate buffered saline NaCl 0.138 M; KCl 0.0027 M; pH 7.4). The cells were resuspended in PBS with protease inhibitors (cOmplete™ protease inhibitor cocktail, Roche product #11873580001) and cell lysates were prepared by sonication (Branson Sonifer 450, output=3, 20 episodes of stroke). The lysates were centrifuged (12,000×g for 10 min at 4° C.) to remove cell debris and the supernatants (containing SARM1 SAM-TIR protein) were stored at −80° C. for later use in the in vitro SARM1 SAM-TIR NADase assay (see below). Protein concentration was determined by the Bicinchoninic (BCA) method and used to normalize lysate concentrations.
# The enzymatic assay was performed in a 384-well polypropylene plate in Dulbecco's PBS buffer in a final assay volume of 20 μL. SAM-TIR lysate with a final concentration of 5 μg/mL was pre-incubated with the respective compound at 1% DMSO final assay concentration over 2 h at room temperature. The reaction was initiated by addition of 5 μM final assay concentration of NAD+ as substrate. After a 2 hr room temperature incubation, the reaction was terminated with 40 μL of stop solution of 7.5% trichloroactetic acid in acetonitrile. The NAD+ and ADPR concentrations were analyzed by a RapidFire High Throughput Mass Spectrometry System (Agilent Technologies, Santa Clara, CA) using an API4000 triple quadrupole mass spectrometer (AB Sciex Framingham, Mass.).
row,SMILES,IC50
1,CS(=O)(=O)N1C2CCC1C(n1sc(Nc3c(Cl)ccc4ncccc34)c(C#N)c1=O)C2 (centres unmarked) [Example 26],< 1000 nM

# Same assay, conditions: SAM-TIR lysate 5 μg/mL, 2 h pre-incubation with compound, 5 μM NAD+, 2 hr room temperature; read-out: SARM1 IC50
row,SMILES,IC50
1,CN1CCC(n2sc(Nc3c(Cl)ccc4ncccc34)c(C#N)c2=O)CC1 [Example 1],< 1000 nM
2,CS(=O)(=O)N1CC[C@H](n2sc(Nc3ccccc3C(F)(F)F)c(C#N)c2=O)C1 [Example 7],< 1000 nM
3,N#Cc1c(Nc2c(Cl)ccc3ncccc23)sn(-c2ccn[nH]2)c1=O [Example 13],< 1000 nM
4,N#Cc1c(Nc2c(Cl)ccc3ncccc23)sn(C2CCNCC2)c1=O [Example 16],< 1000 nM
5,N#Cc1c(Nc2ccccc2C(F)(F)F)sn(C2CCNCC2)c1=O [Example 19],< 1000 nM
6,CS(=O)(=O)N1CC[C@H](n2sc(Nc3c(Cl)ccc4ncccc34)c(C#N)c2=O)C1 [Example 22],< 1000 nM
7,N#Cc1c(Nc2ccccc2C(F)(F)F)sn(C2CNCC23CC3)c1=O (centres unmarked) [Example 24],< 1000 nM
8,N#Cc1c(Nc2cccc3ncccc23)sn(-c2ccc3c(c2)OCCO3)c1=O [Example 25],< 1000 nM
9,N#Cc1c(Nc2ccccc2C(F)(F)F)sn([C@@H]2CNCC23CC3)c1=O [Example 27],< 1000 nM
10,C[C@@H]1CN(S(C)(=O)=O)C[C@H]1n1sc(Nc2c(Cl)ccc3ncccc23)c(C#N)c1=O [Example 28],< 1000 nM
11,CS(=O)(=O)N1CC[C@@H](n2sc(Nc3c(Cl)ccc4ncccc34)c(C#N)c2=O)C1 [Example 30],< 1000 nM
12,N#Cc1c(Nc2ccccc2C(F)(F)F)sn(C2CCOCC2)c1=O [Example 31],< 1000 nM
13,N#Cc1c(Nc2c(Cl)ccc3ncccc23)sn([C@@H]2CCNC2)c1=O [Example 32],< 1000 nM
14,CN1CC[C@@H](n2sc(Nc3c(Cl)ccc4ncccc34)c(C#N)c2=O)C1 [Example 33],< 1000 nM
15,CS(=O)(=O)N1CC2CCC(C1)C2n1sc(Nc2c(Cl)ccc3ncccc23)c(C#N)c1=O (centres unmarked) [Example 34],< 1000 nM
16,CN1C[C@H](n2sc(Nc3c(Cl)ccc4ncccc34)c(C#N)c2=O)C2(CC2)C1 [Example 36],< 1000 nM
17,N#Cc1c(Nc2c(Cl)ccc3ncccc23)sn(C2C3CCC2CNC3)c1=O (centres unmarked) [Example 37],< 1000 nM
18,O=C(c1c(Nc2c(Cl)cccc2Cl)sn(-c2ccccc2)c1=O)N1CCOCC1 [Example 38],< 1000 nM
19,CN1C[C@@H](n2sc(Nc3c(Cl)ccc4ncccc34)c(C#N)c2=O)C2(CC2)C1 [Example 41],< 1000 nM
20,CS(=O)(=O)N1CC2CCC1C2n1sc(Nc2c(Cl)ccc3ncccc23)c(C#N)c1=O (centres unmarked) [Example 42],< 1000 nM
21,C[C@H]1CNCC[C@H]1n1sc(Nc2c(Cl)ccc3ncccc23)c(C#N)c1=O [Example 43],< 1000 nM
22,C[C@@H]1CNC[C@H]1n1sc(Nc2c(Cl)ccc3ncccc23)c(C#N)c1=O [Example 44],< 1000 nM
23,COc1cccc(OC)c1Nc1sn([C@@H]2CCNC2)c(=O)c1C(=O)N1CCOCC1 [Example 46],< 1000 nM
24,Cc1cnn(C)c1-n1sc(Nc2c(Cl)ccc3ncccc23)c(C#N)c1=O [Example 47],1000 to 5000 nM
25,N#Cc1c(Nc2c(Cl)ccc3ncccc23)sn([C@H]2CCNC2)c1=O [Example 48],> 5000 nM
26,CN(c1ccccc1C(F)(F)F)c1sn([C@@H]2CNCC23CC3)c(=O)c1C#N [Example 49],> 5000 nM
27,N#Cc1c(Nc2c(Cl)cccc2Cl)sn(-c2ccc(-n3cccn3)cc2)c1=O [Example 50],< 1000 nM

# Results, then the molecule that gave them:
row,IC50,SMILES
1,< 1000 nM,CC(=O)N1CCC(n2sc(Nc3ccccc3C(F)(F)F)c(C#N)c2=O)CC1 [Example 2]
2,< 1000 nM,C[C@@H]1CNC[C@@H]1n1sc(Nc2ccccc2C(F)(F)F)c(C#N)c1=O [Example 3]
3,< 1000 nM,N#Cc1c(Nc2ccccc2C(F)(F)F)sn(-c2ccccc2)c1=O [Example 4]
4,< 1000 nM,N#Cc1c(Nc2ccccc2C(F)(F)F)sn([C@H]2CCNC2)c1=O [Example 5]
5,< 1000 nM,N#Cc1c(Nc2ccccc2C(F)(F)F)sn(-c2cccc(C(N)=O)c2)c1=O [Example 6]
6,< 1000 nM,N#Cc1c(Nc2ccccc2C(F)(F)F)sn(-c2cccc3[nH]ncc23)c1=O [Example 8]
7,< 1000 nM,N#Cc1c(Nc2ccccc2C(F)(F)F)sn([C@H]2CCN(C(N)=O)C2)c1=O [Example 9]
8,< 1000 nM,N#Cc1c(Nc2ccccc2C(F)(F)F)sn([C@@H]2CCN(C(N)=O)C2)c1=O [Example 10]
9,< 1000 nM,N#Cc1c(Nc2ccccc2C(F)(F)F)sn(-c2ccc3[nH]ncc3c2)c1=O [Example 11]
10,< 1000 nM,CS(=O)(=O)N1CC[C@@H](n2sc(Nc3ccccc3C(F)(F)F)c(C#N)c2=O)C1 [Example 12]
11,< 1000 nM,N#Cc1c(Nc2ccccc2C(F)(F)F)sn(C2CCN(C(N)=O)CC2)c1=O [Example 14]
12,< 1000 nM,CC(=O)N1CC[C@@H](n2sc(Nc3ccccc3C(F)(F)F)c(C#N)c2=O)C1 [Example 15]
13,< 1000 nM,N#Cc1c(Nc2ccccc2C(F)(F)F)sn(-c2cccc(-c3cnco3)c2)c1=O [Example 18]
14,< 1000 nM,CS(=O)(=O)N1CCC(n2sc(Nc3ccccc3C(F)(F)F)c(C#N)c2=O)CC1 [Example 20]
15,< 1000 nM,N#Cc1c(Nc2ccccc2C(F)(F)F)sn([C@@H]2CCNC2)c1=O [Example 21]
16,< 1000 nM,CC(=O)N1CC[C@H](n2sc(Nc3ccccc3C(F)(F)F)c(C#N)c2=O)C1 [Example 23]
17,< 1000 nM,CC(C)(C)OC(=O)n1ncc2cc(-n3sc(Nc4ccccc4C(F)(F)F)c(C#N)c3=O)ccc21 [Example 29]
18,< 1000 nM,COCCN(C)C(=O)c1c(Nc2ccccc2C(F)(F)F)sn(-c2ccccc2)c1=O [Example 35]
19,< 1000 nM,O=C(c1c(Nc2ccccc2C(F)(F)F)sn(-c2ccccc2)c1=O)N1CCOCC1 [Example 39]
20,< 1000 nM,N#Cc1c(Nc2ccccc2C(F)(F)F)sn(-c2ccc(-n3cccn3)cc2)c1=O [Example 51]
21,< 1000 nM,N#Cc1c(Nc2ccccc2C(F)(F)F)sn(-c2ccc3c(c2)OCCO3)c1=O [Example 52]
22,< 1000 nM,N#Cc1c(Nc2ccccc2C(F)(F)F)sn(-c2ccc3cn[nH]c3c2)c1=O [Example 53]
